Results as given in patent publication US20100298343A1, “5-LIPOXYGENASE-ACTIVATING PROTEIN (FLAP) INHIBITORS” (priority 2007, published 2010).

Target: T1, 5-lipoxygenase-activating protein (FLAP) (Homo sapiens, UniProt P20292)
T1 construct: tissue Biological Speciality Corporation; host or cells: human polymorphonuclear cells (100,000 g membranes)
T1 sequence (P20292 1-161): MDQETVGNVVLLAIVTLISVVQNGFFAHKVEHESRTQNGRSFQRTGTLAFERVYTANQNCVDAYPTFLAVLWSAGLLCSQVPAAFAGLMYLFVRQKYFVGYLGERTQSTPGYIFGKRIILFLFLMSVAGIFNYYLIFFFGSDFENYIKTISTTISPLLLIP
Experiment: FLAP Binding Assay
Conditions: human polymorphonuclear cell 100,000 g membranes; 3H MK886 or other radioligand; 30 minutes at room temperature
Method: A non-limiting example of such a FLAP binding assay is as follows:
Packed human polymorphonuclear cell pellets (1.8×10^9 cells) (Biological Speciality Corporation) were resuspended, lysed and 100,000 g membranes prepared as described (Charleson et al. Mol. Pharmacol, 41, 873-879, 1992). 100,000×g pelleted membranes were resuspended in Tris-Tween assay buffer (100 mM Tris HCl pH 7.4, 140 mM NaCl, 2 mM EDTA, 0.5 mM DTT, 5% glycerol, 0.05% Tween 20) to yield a protein concentration of 50-100 μg/mL. 10 μL membrane suspension was added to 96 well Millipore plate, 78 μL Tris-Tween buffer, 10 μL ^3H MK886 or ^3H 3-[5-(pyrid-2-ylmethoxy)-3-tert-butylthio-1-benzyl-indol-2-yl]-2,2-dimethylpropionic acid (or ^125I MK591 derivative Eggler et al, J. Labelled Compounds and Radiopharmaceuticals, 1994, vXXXIV, 1147)) to 30,000 cpm, 2 μL, inhibitor and incubated for 30 minutes at room temperature. 100 μL ice-cold washed buffer was added to the incubation mixture. Plates were then filtered and washed 3× with 200 μL ice cold Tris-Tween buffer, scintillation bottoms sealed, 100 μL scintillant added, shaken for 15 minutes then counted in a TopCount. Specific binding was determined as defined as total radioactive binding minus non-specific binding in the presence of 10 μM MK886. IC50s were determined using Graphpad prism analysis of drug titration curves.

SMILES	IC50 [µM]
CSc1c(C(Cc2ccccc2)C(=O)O)n(C)c2ccc(OCc3ccccn3)cc12 (stereo not shown) [Example 9, 2-[1-Methyl-3-methylsulfanyl-5-(pyridin-2-ylmethoxy)-1H-indol-2-yl]-3-phenyl-propionic acid]	10 to 100
Cn1c(C(Cc2ccccc2)C(=O)O)c(S(C)(=O)=O)c2cc(OCc3ccccn3)ccc21 (stereo not shown) [Example 10, 2-[3-Methanesulfonyl-1-methyl-5-(pyridin-2-ylmethoxy)-1H-indol-2-yl]-3-phenyl-propionic acid]	10 to 100
CCS(=O)(=O)c1c(C(Cc2ccccc2)C(=O)O)n(C)c2ccc(OCc3ccccn3)cc12 (stereo not shown) [Example 11, 2-[3-Ethanesulfonyl-1-methyl-5-(pyridin-2-ylmethoxy)-1H-indol-2-yl]-3-phenyl-propionic acid]	10 to 100
Cc1cnc(COc2ccc3c(c2)c(SC(C)(C)C)c(C(Cc2cnc(C)cn2)C(=O)O)n3C)cn1 (stereo not shown) [Example 37, 2-[3-tert-Butylsulfanyl-1-methyl-5-(5-methyl-pyrazin-2-ylmethoxy)-1H-indol-2-yl]-3-(5-methyl-pyrazin-2-yl)-propionic acid]	100 to 250
